In patent US7935823B2 (priority 2007, dated 2011):
pIC50, pKi: −log10 of the molar value.

How the values were obtained:
[1] = target: NMDA receptor; conditions: read-out: NMDA receptor inhibition constant (Ki); cited from earlier work
[2] = tested on: primary rat cortical neurons; conditions: cultured three days; picomolar concentrations; compared with BDNF at maximally effective concentrations; cited from earlier work
[3] = tested on: SK—N—SH human neuroblastoma cells; conditions: ionomycin-treated cells (70 percent without drug); picomolar concentrations; cited from earlier work
[4] = tested on: mitochondrial permeability transition pores; conditions: MPP(+) and beta-amyloid fragment 25-35; cited from earlier work
[5] = tested on: ion channels associated with glutamate receptors; test: Glutamate-stimulated calcium-ion uptake in rat brain synaptosomes; conditions: P2-fraction of synaptosomes from newborn rat brain; initial screening 5 uM
Method: Evaluation of the calcium-blocking properties of dimebon was conducted with P2-fraction of synaptosomes, which were isolated from the brain of newborn (8-11 days) rats according to the protocol described in [Bachurin et al. Neuroprotective and cognition enhancing properties of MK-801 flexible analogs. Structure-activity relationships./Ann. N.Y. Acad. Sci., 2001, v. 939, pp. 219-235]. In this test, the ability of the compounds to inhibit a specific uptake of calcium ions via ion channels associated with glutamate receptors was determined.
Synaptosomes were placed into the incubation buffer A (132 mM NaCl, 5 mM KCl, 5 mM HEPES) and were kept at 0 degrees Celsius (“C”) during the entire experiment. Aliquots of synaptosomes (50µl) were placed in the media A, containing investigated compounds and a preparation of the radiolabeled calcium, ^45Ca. […] A specific calcium uptake was calculated using the following equation K(43/21)=[(Ca4−Ca3)/(Ca2−Ca1)]*100% where: Ca1 is a calcium uptake in a control experiment (no glutamate or test compound added); Ca2 is a calcium uptake in the presence of glutamate only (Glutamate Induced Calcium Uptake—GICU); Ca3 is a calcium uptake in the presence of a test compound only (no glutamate added); Ca4 is a calcium uptake in the presence of both glutamate and a test compound.

[6] = tested on: C57/B female mice; test: Geroprotector activity in aging mice; format: in vivo; conditions: 3 mg/kg per day in drinking water
Method: Dimebon was evaluated as an agent that prolongs life and improves the quality of life (characterized by changes in the amount of pathologies that accompany ageing) in the laboratory animals.
Experiments were conducted with C57/B female mice, starting from their age of 12 months. Mice were kept on cells, 10 animals per a cell. Both control and experimental group included 50 animals in each group. […] The day-night cycle was 12 hours.
Prior to the experiment, daily and weekly water consumption by the animals in one cell was measured. Dimebon was added in water in such amount that each animal would consume 3 mg/kg of Dimebon per day in average. Bottles with water containing Dimebon were replaced every 7 days. Animals in the control group were receiving pure water.
Prior to the experiment, all the animals were weighed, and an average weight was determined in every group, every cell, as well as the weight of all animals in every cell. The condition of skin, hair, and eyes were also determined by visual inspection. […] Evaluation of all these parameters was conducted on a monthly basis.
Statistics were calculated using Student T-test and ‘Chi-squared’ criteria.

[7] = tested on: neuroblastoma line (SH—SY5Y); conditions: pre-treatment with one nano-molar; cited from earlier work
[8] = tested on: patients with mild to moderate AD; conditions: cited from earlier work
[9] = human clinical studies; cited from earlier work
[10] = target: acetylcholinesterase (Homo sapiens, UniProt P22303); conditions: recombinant enzyme and fresh blood samples from three volunteers; read-out: acetylcholinesterase half-maximal inhibitory concentration (IC50); cited from earlier work
[11] = tested on: SK—N—SH human neuroblastoma cells; conditions: ionomycin-treated cells (40 percent without drug); picomolar concentration; cited from earlier work

Sequence of acetylcholinesterase (P22303 32-574 limits assumed): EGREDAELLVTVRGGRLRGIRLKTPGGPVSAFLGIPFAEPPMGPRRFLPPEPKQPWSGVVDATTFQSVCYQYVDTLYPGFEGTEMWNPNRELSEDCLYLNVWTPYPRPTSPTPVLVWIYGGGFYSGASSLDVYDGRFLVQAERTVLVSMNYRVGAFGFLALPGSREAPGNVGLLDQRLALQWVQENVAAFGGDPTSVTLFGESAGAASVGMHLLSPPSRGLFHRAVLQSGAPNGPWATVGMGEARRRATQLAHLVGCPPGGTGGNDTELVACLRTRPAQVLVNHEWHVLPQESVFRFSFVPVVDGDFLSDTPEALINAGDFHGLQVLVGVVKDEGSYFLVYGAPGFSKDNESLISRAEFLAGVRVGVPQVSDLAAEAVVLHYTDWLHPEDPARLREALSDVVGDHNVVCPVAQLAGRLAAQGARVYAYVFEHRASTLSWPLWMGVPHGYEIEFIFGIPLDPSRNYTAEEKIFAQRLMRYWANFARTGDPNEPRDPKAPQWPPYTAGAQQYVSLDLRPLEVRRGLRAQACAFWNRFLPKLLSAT

For Cc1ccc2c(c1)c1c(n2CCc2ccc(C)nc2)CCN(C)C1 [dimebon], the pKi [1] is listed as 4.01, the neurite outgrowth [2] is listed as “increased neurite outgrowth as well as did BDNF” and the “JC-1 red/green ratio relative to control cells” value [3] is listed as 85-90%. The “prevention of neurotoxin-induced opening of mitochondrial pores” value [4] was “prevented”, the “calcium-blocking properties (specific glutamate-induced 45Ca uptake)” value [5] was “pronounced calcium-blocking properties” and the age-related weight depletion [6] was “No weight depletion was observed”. The “development of non-fatal pathologies (loss of vision and alopecia)” value [6] was “slowing of the development of non-fatal pathologies”, the probability of death ([6]; from age 12 months) was “lower in all age groups” and the “amount of animals with cataract vs control” value ([6]; 13 to 20 months old mice) was “significantly less”. For the same compound, the “protection of mitochondrial function (TMRM probe)” value [7] was “protected cells from ionomycin-induced stress”, the “clinical endpoints and tolerability in one-year trial” value ([8]; one-year randomized double-blinded placebo-controlled trial, 183 patients) was “met all five clinical endpoints with strong statistical significance, and was very well tolerated” and the safety and tolerability ([8]; six-month open-label extension, exposure to 18 months) was “no safety or tolerability issues”. For the same compound, the “participants/patients reporting gastrointestinal problems” value [9] was “less than 3%”, the pIC50 [10] was 4.14 to 4.51 and the “cell survival (MTT) relative to control cells” value [11] was 75-85%.
